From patent US12049486B2, “PAC1 receptor agonists (MAXCAPs) and uses thereof” (priority 2017, dated 2024)
Where no end group is shown, it is not given here.

Test: Hepatic fat / liver cirrhosis, NASH/NAFLD by H&E staining in DIO WT mice
Format: in vivo
Conditions: versus vehicle
Source text: We have shown that these novel MAXCAP compounds, that are PAC1 specific agonists, can potentially treat Nonalcoholic steatohepatitis (NASH), non-alcoholic […] (NAFLD) and liver fibrosis. We injected these MAXCAP compounds in DIO WT mice and measured hepatic fat in the liver (see, e.g., FIG. 5).

For “Pituitary Adenylate Cyclase Activating Polypeptide (HSDGIFTDSYSRYRKQMAVKKYLAAVLGKRYKQRVKNK; ends and bridges not checked; listed as Homo sapiens) [PACAP, native peptide]”, the “liver cirrhosis and NASH/NAFLD” value was “significant reduction in liver cirrhosis and NASH/NAFLD”.
